Six compounds from patent US10245249B2, “Pharmaceutical compositions comprising nitroxyl donors” (Cardioxyl Pharmaceuticals, Inc., priority 2013, dated 2019) can be followed below.

In one data set the test system is healthy volunteers. The experiment in a line: 24-hour continuous infusion dose escalation safety study in healthy volunteers. It is filed as in vivo, human. The method, then: To determine whether a local phlebitis would occur in humans upon longer duration dosing, a longer duration study was conducted in healthy volunteers. The longer duration study included a dose escalation study in which cohorts of 10 volunteers were to be sequentially administered a 24-hour continuous infusion of CXL-1020 at the dose rates of 10, 20, and 30 μg/kg/min with a safety assessment between each cohort. Each cohort consisted of 2 placebo and 8 active treatments with a sentinel pair of 1 active and 1 placebo followed by the main group of 1 placebo and 7 active treatments. The infusion was via a percutaneous catheter inserted into a forearm vein. The catheter was switched to the contralateral arm after 12 hours of infusion.

Another data set concerns normal canines. The experiment in a line: Hemodynamic efficacy in normal canines (pressure-volume loop analysis). It is filed as in vivo, beagle dogs. Conditions: i.v. infusion, Dose Rate (μmol/kg/min): CXL-1020 100, (1) 50, (2) 100, (83) 65, (84) 77. The method, then: The cardiovascular effects of nitroxyl donors were examined by means of pressure-volume (PV) curve (loops) analysis in conscious, sling-restrained beagle dogs. Animals were allowed free access to drinking water and a commercial canine diet under standard laboratory conditions. Fluorescent lighting was provided via an automatic timer for approximately 12 hours per day. On occasion, the dark cycle was interrupted intermittently due to study-related activities. Temperature and humidity were monitored and recorded daily and maintained to the maximum extent possible between 64° F. and 84° F. and 30% to 70%, respectively. The dogs were acclimated for a period of at least 1 week prior to surgery. Following surgery and recovery the animals were acclimated to sling restraint for a period up to 4.5 hours. Animals were fasted overnight prior to surgery. An indwelling venous catheter was placed in peripheral vein (e.g., cephalic) for administration of anesthetic. General anesthesia was induced intravenously (bolus) with buprenorphine (about 0.015 mg/kg) followed by an intravenous bolus of propofol (about 6 mg/kg). Additionally, a prophylactic antibiotic (cefazolin 20 to 50 mg/kg via i.v.) was given upon induction. […] Anesthesia was maintained with inhaled isoflurane (1% to 3%). Once a stable (surgical) plane of anesthesia had been established, a left-thoracotomy was performed (under strict aseptic conditions) and each animal was chronically instrumented with sono-micrometry crystals providing left-ventricular (LV) dimensions/volume. Additionally, a fluid-filled catheter and a solid-state monometer were placed in the left ventricle for pressure monitoring. A fluid-filled catheters was placed in the right ventricle (RV) and the aorta (Ao) for pressure monitoring/test article administration. […] The catheters/wires were aseptically tunneled and externalized between the scapulae. Over the course of the study, fluid-filled catheters were regularly (at least once weekly) flushed with a locking-solution in order to prevent both clotting and bacterial growth (2-3 mL of Taurolidine-Citrate solution, TCS-04; Access Technologies). Following the cardiovascular instrumentation, the right jugular vein was carefully exposed and cannulated with a bipolar pacing lead/catheter ([…]® Novus; Medtronic). Under fluoroscopic guidance, this pacing lead was advanced normograde into the right ventricle and actively affixed (screwed in) to the apical endocardium. The proximal end of the lead was secured to the pacing device (Kappa 900; Medtronic). Subsequently, the pacemaker was placed/secured in a subcutaneous pocket in the neck. Considering that the heart was exposed via a thoracotomy, a bipolar pacing wire was secured in the right ventricular mid-myocardium. This pacing lead was tunneled/externalized between the scapulae, and used in conjunction with an external impulse generator/pacemaker. The implanted endocardial pacemaker was used as a back-up to the external/epicardial pacemaker. Prior to closure of the chest from the thoracotomy, a chest tube was placed for drainage of any fluid and/or gas that accumulated from the surgical procedure. The tube was aspirated twice daily until the amount of fluid removed was less than 35 mL per aspiration in an approximately 24 hour period. The chest tube was then removed. All animals were administered a prophylactic antibiotic (cefazolin 20 to 50 mg/kg via i.v.) and pain medication (meloxicam at about 0.2 mg/kg via i.v.). If necessary, an additional analgesic was also administered which included a fentanyl patch (25 to 50 mcg/hour). All surgical incisions were closed in layers; the underlying musculature was closed with absorbable sutures and the skin was closed with staples. Following surgery, the animals were allowed to recover for at least 14 days. Cephalexin (20 to 50 mg/kg) was administered orally BID for at least 7 days and meloxicam (0.1 mg/kg) was administered SID orally or subcutaneously for at least 2 days after surgery. […]

The next data set has as its system dogs. The experiment in a line: Toxicological profile of compositions formulated at pH 4 or pH 6, 24 hour infusion at 3 μg/kg/min. The following applies: FIG. 4; for effect of increasing infusate pH from approximately 4 to approximately 6 on toxicology: 1:1 molar donor:CAPTISOL, infused at 3 μg/kg/min. The class given is in vivo. The method, then: For samples at a pH of 4, the compositions were prepared by admixing a 1:1 molar ratio of the nitroxyl donor:CAPTISOL®, lyophilizing the admixture, then diluting the lyophilized admixture into D5W. For samples at a pH of 6, the compositions were prepared by admixing a 1:1 molar ratio of the nitroxyl donor:CAPTISOL®, lyophilizing the admixture, then diluting the lyophilized admixture into D5W with 5 mM potassium phosphate. Compounds were infused at a rate of 3 μg/kg/min.

A short description of data set [1]: In vitro stability (half-life) in rat plasma. It is filed as in vitro ADME. Conditions: male, rat, plasma, pH 7.4, 5 μM, rat plasma pH 7.4 with anticoagulant, 37° C.; read-out: T1/2 (minutes) Rat. The procedure, abridged: (§1)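 Compounds at 5 μM were incubated at 37° C in PBS or in rat, dog or pooled human plasma (heparin or citrate) at pH 7.4. Triplicates were sampled from 0 to 360 minutes and quenched in acetonitrile/formic acid. LC-MS/MS percent remaining gave T1/2, averaged over replicate runs.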

The nature of data set [2]: In vitro stability (half-life) in phosphate buffered saline (PBS) pH 7.4. The class given is physicochemical. Conditions: pH 7.4, 5 μM, PBS pH 7.4, 37° C., read-out: T1/2 (minutes) PBS. The method in brief:
as §1

SMILES strings stand for the structures.

For `CS(=O)(=O)c1ccccc1S(=O)(=O)NO` [CXL-1020, N-hydroxy-2-methanesulfonylbenzene-1-sulfonamide, reference compound], in the data set with healthy volunteers (10 μg/kg/min for 24-hours), the tolerability result is on record as “well tolerated”. In addition, the adverse findings entry in the data set with healthy volunteers (20 μg/kg/min for 24-hours) is given as “mild findings (either clinical signs and/or changes in clinical pathology) in all 8 subjects consistent with infusion site phlebitis”. In the data set with normal canines, the EDV is −20.51 ± 7.63 % Change from Baseline, the ESP was −17.79 ± 3.09 % Change from Baseline, the ESPVR is given as 28.25 ± 8.69 % Change from Baseline and the HR came out at 6.71 ± 4.72 % Change from Baseline. Besides, in the data set with normal canines, the PRSW is 12.60 ± 2.96 % Change from Baseline, the SW is given as −13.96 ± 5.51 % Change from Baseline and the Tau was −6.58 ± 4.53 % Change from Baseline. Besides, the “effect of increasing infusate pH from approximately 4 to approximately 6 on toxicology” value in the data set with dogs is recorded as “improved the toxicology”. Besides, the “improvement of inflammatory profile on increasing infusate pH from 4 to 6” value in the data set on dogs (dogs) is “approximately 3 fold”.
In the case of `Cc1ccc(S(=O)(=O)NO)o1` [Compound 1, N-Hydroxy-5-methylfuran-2-sulfonamide], in the data set on normal canines, the EDV is on record as −6 ± 2 % Change from Baseline, the ESP is reported as −18 ± 2 % Change from Baseline, the ESPVR was determined as 19 ± 1 % Change from Baseline and the HR was −4 ± 2 % Change from Baseline. For the same compound, in the data set with normal canines, the PRSW came out at 12 ± 1 % Change from Baseline, the SW was −11 ± 4 % Change from Baseline and the Tau is listed as −6 ± 1 % Change from Baseline.
In the case of `CS(=O)(=O)c1cccc(S(=O)(=O)NO)c1` [Compound 2, N-Hydroxy-3-methanesulfonylbenzene-1-sulfonamide], in the data set with normal canines, the EDV is listed as −17.41 ± 1.58 % Change from Baseline, the ESP was −15.22 ± 2.39 % Change from Baseline, the ESPVR turned out to be 25.87 ± 5.04 % Change from Baseline and the HR is −6.17 ± 5.58 % Change from Baseline. Also, in the data set with normal canines, the PRSW was 12.88 ± 1.12 % Change from Baseline, the SW was −17.56 ± 2.66 % Change from Baseline and the Tau is listed as −6.40 ± 7.11 % Change from Baseline. Moreover, in the data set on dogs, the “effect of increasing infusate pH from approximately 4 to approximately 6 on toxicology” value is “improved the toxicology”.
For the compound `O=S(=O)(NO)c1ccco1` [Compound 83, N-Hydroxyfuran-2-sulfonamide], in the data set on normal canines, the EDV is recorded as −16.88 ± 1.69 % Change from Baseline, the ESP is on record as −21.99 ± 3.32 % Change from Baseline, the ESPVR is on record as 29.33 ± 8.36 % Change from Baseline and the HR stood at 2.89 ± 2.94 % Change from Baseline. For the same compound, in the data set on normal canines, the PRSW worked out at 19.79 ± 3.39 % Change from Baseline, the SW is −19.18 ± 6.70 % Change from Baseline and the Tau is reported as −10.10 ± 1.56 % Change from Baseline. Moreover, the half-life at 5 μM in data set [1] was 43 min. The half-life at 5 μM in data set [2] amounted to 37 min.
As for `Cc1ccc(S(=O)(=O)NO)s1` [Compound 84, N-Hydroxy-5-methylthiophene-2-sulfonamide], in the data set on normal canines, the EDV is given as −10.99 ± 2.33 % Change from Baseline, the ESP was −16.85 ± 2.33 % Change from Baseline, the ESPVR turned out to be 50.71 ± 8.14 % Change from Baseline and the HR was 4.31 ± 2.98 % Change from Baseline. For the same compound, in the data set with normal canines, the PRSW is listed as 17.70 ± 2.35 % Change from Baseline, the SW is −13.98 ± 1.14 % Change from Baseline and the Tau was −9.60 ± 6.06 % Change from Baseline. Also, the half-life at 5 μM in data set [1] was determined as 65 min. Moreover, the half-life at 5 μM in data set [2] worked out at 125 min.
Take `Cn1ccc(S(=O)(=O)NO)n1` [Compound 85, N-Hydroxy-1-methyl-1H-pyrazole-3-sulfonamide]: the half-life at 5 μM in data set [2] was 59 min.
